molecular target: T1, human VR1 (Homo sapiens, UniProt Q8NER1); test: FLIPR based calcium assay, antagonism of capsaicin response in 1321N1 cells stably expressing human VR1; type: cell-based; conditions: transfected astrocytoma 1321N1 cells expressing human VR1; capsaicin as agonist; pKb generated from IC50 using the Cheng-Prusoff equation
T1 construct: expressed in transfected cells; host or cells: astrocytoma 1321N1 cells, stably transfected
Procedure: The screen used for the compounds of this invention was based upon a FLIPR based calcium assay, similar to that described by Smart et al. (British Journal of Pharmacology, 2000, 129, 227-230). Transfected astrocytoma 1321N1 cells, stably expressing human VR1, were seeded into FLIPR plates at 25,000 cells/well (96-well plate) and cultured overnight.
The cells were subsequently loaded in medium containing 4 μM Fluo-3 AM (Molecular Probes) for 2 h, at room temperature, in the dark. The plates were then washed 4 times with Tyrode containing 1.5 mM calcium, without probenecid. The cells were pre-incubated with compound or buffer control at room temperature for 30 min. Capsaicin (Sigma) was then added to the cells. Compounds having antagonist activity against the human VR1 were identified by detecting differences in fluorescence when measured after capsaicin addition, compared with no compound buffer controls. Thus, for example, in the buffer control capsaicin addition results in an increase in intracellular calcium concentration resulting in fluorescence. A compound having antagonist activity blocks the capsaicin binding to the receptor, there is no signalling and therefore no increase in intracellular calcium levels and consequently lower fluorescence. pKb values are generated from the IC50 values using the Cheng-Prusoff equation.

T1 sequence (Q8NER1 whole entry): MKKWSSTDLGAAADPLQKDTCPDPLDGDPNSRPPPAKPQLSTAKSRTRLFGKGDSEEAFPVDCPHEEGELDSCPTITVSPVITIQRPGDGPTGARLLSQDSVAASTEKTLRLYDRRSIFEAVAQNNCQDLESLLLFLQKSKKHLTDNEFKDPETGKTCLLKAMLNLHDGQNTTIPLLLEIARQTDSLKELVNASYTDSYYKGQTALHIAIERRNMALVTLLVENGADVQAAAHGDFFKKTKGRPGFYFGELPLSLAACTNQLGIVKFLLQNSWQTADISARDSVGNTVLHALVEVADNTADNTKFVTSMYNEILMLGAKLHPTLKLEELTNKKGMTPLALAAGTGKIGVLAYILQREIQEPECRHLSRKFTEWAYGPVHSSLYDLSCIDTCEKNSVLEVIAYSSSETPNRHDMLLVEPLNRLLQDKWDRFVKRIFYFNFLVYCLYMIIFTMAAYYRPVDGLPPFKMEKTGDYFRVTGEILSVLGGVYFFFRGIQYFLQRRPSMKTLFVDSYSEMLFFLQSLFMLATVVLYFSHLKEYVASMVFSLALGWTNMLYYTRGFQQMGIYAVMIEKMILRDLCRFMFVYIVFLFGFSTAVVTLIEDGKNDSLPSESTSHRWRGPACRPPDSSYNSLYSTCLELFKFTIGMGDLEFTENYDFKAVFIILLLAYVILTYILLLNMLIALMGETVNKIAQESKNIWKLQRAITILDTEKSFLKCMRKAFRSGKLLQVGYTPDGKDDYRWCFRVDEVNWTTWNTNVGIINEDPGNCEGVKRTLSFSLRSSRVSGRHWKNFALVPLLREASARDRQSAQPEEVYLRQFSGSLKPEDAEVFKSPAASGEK

Kb, < 0.1 µM:
Cc1cc2c(NC(=O)N[C@@H]3CCN(Cc4cccc(Cl)c4)C3)cccc2cn1 [Example 14]
Cc1cc2c(NC(=O)N[C@@H]3CCN(Cc4cccc(C(F)(F)F)c4)C3)cccc2cn1 [Example 16]
Cc1cc2c(NC(=O)N[C@@H]3CCN(Cc4ccc(C(F)(F)F)cc4)C3)cccc2cn1 [Example 17]
Cc1nccc2c(NC(=O)NC3CN(Cc4ccccc4C(F)(F)F)C3)cccc12 [Example 22]

— US7528150B2, “Urea derivatives having vanilloid receptor antagonist activity” (Glaxo Group Limited, priority 2003, dated 2009)
